Test results reported in the supplement of paper PMC13380429.

Columns and labels:
[1] = test system: A549-ACE2 infected with SARS-CoV-2; assay: cell count relative to DMSO; higher = less toxic; details: 24 h
Caco-2 [2] = assay: cell viability relative to DMSO; higher = less toxic; details: 72 h
Calu-3 [3] = assay: as above; details: 72 h
HepG2 [4] = assay: as above; details: 72 h
U2OS [5] = assay: as above; details: 72 h
Vero E6 [6] = assay: as above; details: 72 h
[7] = test system: A549-ACE2 infected with SARS-CoV-2; assay: SARS-CoV-2 infection rate relative to DMSO; higher = more infection; details: 24 h
A549-ACE2 [8] = assay: phospholipidosis EC50; higher = less potent phospholipidosis inducer
A549-ACE2 [9] = assay: drug-induced phospholipidosis relative to tamoxifen; higher = more phospholipidosis
[10] = test system: A549-ACE2 infected with SARS-CoV-2; assay: morphology score (similarity to uninfected cells); higher = more like uninfected cells; details: 24 h
U2OS [11] = assay: relative viability EC50 (midpoint between 100% and the lowest measured viability); higher = less toxic; details: 72 h
Caco-2 [12] = assay: drug sensitivity score (DSS) for viability; higher = more toxic; extreme values may be limits of the assay; details: 72 h
Calu-3 [13] = assay: as above; details: 72 h
HepG2 [14] = assay: as above; details: 72 h
U2OS [15] = assay: as above; details: 72 h
Vero E6 [16] = assay: as above; details: 72 h
Caco-2 [17] = assay: relative viability EC50 (midpoint between 100% and the lowest measured viability); higher = less toxic; details: 72 h
Calu-3 [18] = assay: as above; details: 72 h
HepG2 [19] = assay: as above; details: 72 h
Vero E6 [20] = assay: as above; details: 72 h

O=C(c1ccc(-c2ccc(Cl)cc2)o1)N(Cc1ccccn1)c1ccc(N2CCNCC2)cc1 [MK2-IN-1]
Details | SARS-CoV-2 infection rate [%] | cell count [%] | cell viability [%] | morphology score | phospholipidosis EC50 [µM]
A549-ACE2 [8], 24 h | – | – | – | – | 3.59
A549-ACE2 [8], 48 h | – | – | – | – | 4.69
A549-ACE2 [8], 72 h | – | – | – | – | 4.85
Caco-2 [2], 1 nM | – | – | 104 | – | –
Caco-2 [2], 10 nM | – | – | 111 | – | –
Caco-2 [2], 100 nM | – | – | 100 | – | –
Caco-2 [2], 1000 nM | – | – | 131 | – | –
Caco-2 [2], 10000 nM | – | – | 52.9 | – | –
Calu-3 [3], 1 nM | – | – | 92.2 | – | –
Calu-3 [3], 10 nM | – | – | 112 | – | –
Calu-3 [3], 100 nM | – | – | 93.9 | – | –
Calu-3 [3], 1000 nM | – | – | 116 | – | –
Calu-3 [3], 10000 nM | – | – | 54.9 | – | –
HepG2 [4], 1 nM | – | – | 102 | – | –
HepG2 [4], 10 nM | – | – | 109 | – | –
HepG2 [4], 100 nM | – | – | 115 | – | –
HepG2 [4], 1000 nM | – | – | 97.9 | – | –
HepG2 [4], 10000 nM | – | – | 68.2 | – | –
U2OS [5], 1 nM | – | – | 97.9 | – | –
U2OS [5], 10 nM | – | – | 103 | – | –
U2OS [5], 100 nM | – | – | 95.9 | – | –
U2OS [5], 1000 nM | – | – | 104 | – | –
U2OS [5], 10000 nM | – | – | 83.2 | – | –
Vero E6 [6], 1 nM | – | – | 96.5 | – | –
Vero E6 [6], 10 nM | – | – | 94 | – | –
Vero E6 [6], 100 nM | – | – | 98.1 | – | –
Vero E6 [6], 1000 nM | – | – | 95.7 | – | –
Vero E6 [6], 10000 nM | – | – | 67.6 | – | –
[1], 0.1 µM | – | 100 | – | – | –
[1], 0.3 µM | – | 102 | – | – | –
[1], 1 µM | – | 107 | – | – | –
[1], 3 µM | – | 117 | – | – | –
[7], 0.1 µM | 97 | – | – | – | –
[7], 0.3 µM | 88 | – | – | – | –
[7], 1 µM | 77 | – | – | – | –
[7], 3 µM | 29 | – | – | – | –
[10], 0.1 µM | – | – | – | 0.14 | –
[10], 0.3 µM | – | – | – | 0.26 | –
[10], 1 µM | – | – | – | 0.34 | –
[10], 3 µM | – | – | – | 0.75 | –

drug-induced phospholipidosis [%], A549-ACE2 [9]
Details | 0.3 µM | 0.833333 µM | 3.33333 µM | 6.66667 µM | 10 µM | 30 µM
24 h | 3.45 | 9.1 | 31.8 | 109 | 102 | 96.8
48 h | 6.99 | 4.08 | 23 | 127 | 127 | 153
72 h | 5.37 | -1.19 | 20.6 | 118 | 139 | –

Details | drug sensitivity score | relative viability EC50 [µM]
Caco-2 [12] | 1.5 | –
Calu-3 [13] | 1.7 | –
HepG2 [14] | 1.7 | –
U2OS [11] | – | > 10
U2OS [15] | 0.2 | –
Vero E6 [16] | 2.2 | –

CCN(CC)CCCC(C)Nc1ccnc2cc(Cl)ccc12 (stereo not drawn) [chloroquine]
[10]
Details | morphology score
0.3 µM | 0.17
3 µM | 0.37
10 µM | 0.63
30 µM | 0.8

Details | drug sensitivity score
Calu-3 [13] | 0
HepG2 [14] | 0.6
U2OS [15] | 0

CC1(C)CC[C@]2(NC(=O)C(C)(F)F)CC[C@]3(C)[C@H](C(=O)C=C4[C@@]5(C)C=C(C#N)C(=O)C(C)(C)[C@@H]5CC[C@]43C)[C@@H]2C1 [Omaveloxolone (RTA-408)]
Details | SARS-CoV-2 infection rate, [7] [%] | cell count, [1] [%] | cell viability, Caco-2 [2] [%] | cell viability, Calu-3 [3] [%] | cell viability, HepG2 [4] [%] | cell viability, U2OS [5] [%] | cell viability, Vero E6 [6] [%] | morphology score, [10]
1 nM | – | – | 100 | 99.6 | 97.6 | 96.8 | 107 | –
10 nM | – | – | 102 | 118 | 91.6 | 102 | 108 | –
100 nM | – | – | 85.7 | 90.7 | 83.6 | 98.7 | 103 | –
0.3 µM | 111 | 97 | – | – | – | – | – | -0.26
1000 nM | – | – | 32.3 | 23.6 | 1.2 | 1.9 | 7.7 | –
3 µM | 0 | 1 | – | – | – | – | – | 0.09
10000 nM | – | – | 5.4 | 1.6 | -0.3 | -0.1 | -0.1 | –

A549-ACE2 [9], 0.3 µM
Details | drug-induced phospholipidosis [%]
24 h | 9.83
48 h | 10.5
72 h | 21.8

Details | drug sensitivity score | relative viability EC50 [µM]
Caco-2 [12] | 14.5 | –
Caco-2 [17] | – | 0.45
Calu-3 [13] | 15.4 | –
Calu-3 [18] | – | 0.453
HepG2 [14] | 20.7 | –
HepG2 [19] | – | 0.192
U2OS [11] | – | 0.321
U2OS [15] | 17.9 | –
Vero E6 [16] | 16.6 | –
Vero E6 [20] | – | 0.41

COc1cc2ncnc(Sc3nnc(C)s3)c2cc1OC [SKLB1002]
Details | SARS-CoV-2 infection rate, [7] [%] | cell count, [1] [%] | cell viability, Caco-2 [2] [%] | cell viability, Calu-3 [3] [%] | cell viability, HepG2 [4] [%] | cell viability, U2OS [5] [%] | cell viability, Vero E6 [6] [%] | morphology score, [10]
1 nM | – | – | 101 | 103 | 104 | 99.1 | 96.2 | –
10 nM | – | – | 92 | 99.2 | 99.6 | 99.4 | 94.8 | –
100 nM | – | – | 97.7 | 96.3 | 105 | 102 | 92.7 | –
0.3 µM | 105 | 102 | – | – | – | – | – | -0.11
1000 nM | – | – | 94.4 | 92.1 | 105 | 102 | 98.4 | –
3 µM | 105 | 102 | – | – | – | – | – | -0.15
10 µM | 106 | 97 | – | – | – | – | – | 0.01
10000 nM | – | – | 73.7 | 107 | 59.1 | 88.3 | 87.8 | –
30 µM | 79 | 85 | – | – | – | – | – | 0.25

drug-induced phospholipidosis [%], A549-ACE2 [9]
Details | 0.3 µM | 0.833333 µM | 3.33333 µM | 6.66667 µM | 10 µM | 30 µM
24 h | 7.29 | 1.02 | 4.5 | 10.7 | 22.8 | 44.1
48 h | 7.01 | -1.13 | -0.08 | 3.84 | 12.5 | –
72 h | 8.05 | -2.71 | -0.571 | -0.945 | 0.143 | –

Details | drug sensitivity score | relative viability EC50 [µM]
Caco-2 [12] | 1.9 | –
Calu-3 [13] | 0 | –
Calu-3 [18] | – | > 10
HepG2 [14] | 1.7 | –
U2OS [11] | – | > 10
U2OS [15] | 0 | –
Vero E6 [16] | 0 | –
Vero E6 [20] | – | > 10

C=CC(=O)Nc1cccc(C)c1Nc1ncc2cc(-c3c(Cl)c(OC)cc(OC)c3Cl)ccc2n1 [BLU9931]
Details | SARS-CoV-2 infection rate, [7] [%] | cell count, [1] [%] | cell viability, Caco-2 [2] [%] | cell viability, Calu-3 [3] [%] | cell viability, HepG2 [4] [%] | cell viability, U2OS [5] [%] | cell viability, Vero E6 [6] [%] | morphology score, [10]
1 nM | – | – | 103 | 99.4 | 102 | 101 | 106 | –
10 nM | – | – | 105 | 103 | 108 | 104 | 98.8 | –
100 nM | – | – | 97 | 97.5 | 96.3 | 97.4 | 99.8 | –
0.3 µM | 102 | 106 | – | – | – | – | – | 0.15
1000 nM | – | – | 96.8 | 101 | 90.5 | 104 | 97.6 | –
3 µM | 96 | 99 | – | – | – | – | – | 0.3
10 µM | 77 | 75 | – | – | – | – | – | 0.26
10000 nM | – | – | 81 | 53.7 | 34.2 | 43.8 | 85.8 | –
30 µM | 65 | 67 | – | – | – | – | – | 0.43

drug-induced phospholipidosis [%], A549-ACE2 [9]
Details | 0.3 µM | 0.833333 µM | 3.33333 µM | 6.66667 µM | 10 µM | 30 µM
24 h | 1.97 | 0.46 | 11 | 14.3 | 20.1 | 73.6
48 h | 2.96 | 1.66 | 13.1 | – | – | –
72 h | 1.37 | -1.51 | 4.02 | – | – | –

Details | drug sensitivity score | relative viability EC50 [µM]
Caco-2 [12] | 0.9 | –
Caco-2 [17] | – | > 10
Calu-3 [13] | 2.3 | –
HepG2 [14] | 5.2 | –
HepG2 [19] | – | 2.02
U2OS [11] | – | 3.55
U2OS [15] | 2.7 | –
Vero E6 [16] | 0.4 | –
Vero E6 [20] | – | > 10
